Results reported in patent publication US20160262923A1, “INTRAUTERINE DELIVERY SYSTEM” (BAYER OY, priority 2013, published 2016).

Key:
[1] = test system: uterine horn; experiment: Weight gain of IUS-carrying uterine horn in ovary-resected rats; type: in vivo; settings: E2 treated, IUS (rod) in right uterine horn
Procedure: The local uterine action of the a.m. progestin compared to systemic side effects (dissociation) was investigated on the basis of studies using rats (see Example 4; FIGS. 4 to 6). The uterus of ovary-resected rats responded to implantation of progestin-containing IUS (rods) with decidualization and weight gain. The local progestin effects were also determined on the basis of changes in gene expression. […] The left uterine horn remained untreated for internal comparison.

[2] = in vivo
[3] = test system: Uterine bleeding; experiment: Comparison study in monkey, IUS vehicle vs LNG vs NP, uterine bleeding; type: in vivo, cynomolgus macaques; settings: for number of bleeding days: first 7 days after insertion neglected
Procedure: Animal Treatments: Adult cycling cynomolgus macaques were monitored to record regular menstrual cycles. Uterine bleeding was assessed daily by vaginal swabs (for sporadic vaginal spotting) and menstrual blood loss by vaginal tampons. After 2 menstrual cycles (˜60 days), the animals were assigned to treatment groups and laparotomized between days 6-8 (ideally day 7) of the follicular phase and an IUS was inserted by hysterotomy into the uterine lumen and sutured in place. Treatment IUS was as follows (n=5-6/group): • Group 1: Vehicle IUS • Group 2: 2 μg/day LNG • Group 3: 5 μg/day LNG • Group 4: 2 μg/day NP • Group 5: 5 μg/day NP Classification of bleeddings: Bleedings were grouped in three categories: a) positive swap or frank menses, which is the most heavy form of bleeding (BB, red colour), b) light positive swab, which is an intermediated type of bleeding (B, purple colour) and c) spot positive swab, which is a very light form of bleeding (S, orange colour). For evaluation of bleeding days, the first 7 days after insertion of the IUS were neglected, because the surgical insertion procedure already causes some bleedings in these days, which is unrelated progestin effects. FIGS. 2 and 3 and Tables 1 and 2 illustrate a comparison of 2 μg/d LNG release with 5 μg/d LNG release for 80 days with the IUS for each animal.

[4] = Progestational activity compared to LNG
[5] = test system: IGFBP-1, Cyp26a1; experiment: Gene expression analysis of uterine tissue after IUS (rods) in rats; type: in vivo; settings: local administration by IUS (rods) in rats, identical release rates
Procedure: The left uterine horn remained untreated for internal comparison.
The uterine tissue was homogenized in 800 μl of RLT lysis buffer (Qiagen, Hilden, Germany; #79216) using a Precellys24 homogenizer (Peqlab, Erlangen, Germany; 2.8 mm ceramic beads; #91-PCS-CK28, 2×6000 rpm). 400 μl of the homogenate obtained were used for isolating total RNA, using the QlAsymphony RNA kit (Qiagen, #931636) on a QlAsymphony SP robot for automated sample preparation. Reverse transcription of from 1 μg to 4 μg of total RNA was carried out using the SuperScript III first-strand synthesis system (Invitrogen, Carlsbad, USA; #18080-051) according to the random hexamer procedure.
Gene expression analysis was carried out with from 50 ng to 200 ng of cDNA per reaction on an SDS7900HT Real.time PCR system (Applied Biosystems, Carlsbad, USA) using TaqMan probes (Applied Biosystems; IGFBP-1 Rn00565713_m1, Cyp26a1 Rn00590308_m1, PPIA Rn00690933_m1) and the Fast Blue qPCR MasterMix Plus (Eurogentec, Liege, Belgium; #RT-QP2X-03+FB). For relative quantification, cyclophilin A (PPIA) was used as an endogenous control. Relative expression levels were calculated according to the comparative delta delta CT method.

[6] = release rate 2 μg/d, total of 6 test animals
[7] = release rate 5 μg/d, total of group (LNG: 5 test animals)

Compound	local efficacy by way of weight gain in the IUS-carrying uterine horn [1]	break-down rate [2]	systemic stability / plasma clearance compared to LNG [2]	bleeding reduction compared to LNG ([3]; 2 μg/d NP versus 2 μg/d LNG)	bleeding compared to vehicle IUS group ([3]; 2 μg/d release group)	bleeding compared to vehicle IUS group ([3]; 5 μg/d release group)	number of bleeding days [3, 6] [days]	number of bleeding days [3, 7]	progestional activity compared to LNG [4]	potency in inducing gene expression relative to levonorgestrel [5]
CC[C@]12CCC3C4CCC(=O)C=C4C4CC4C3C1[C@@H]1C[C@@H]1[C@@]21CCCO1 (stereo partly drawn) [compound B, 18-methyl-6α,7α,15β,16β-dimethylene-19-nor-20-spirox-4-en-3-one]	dose-dependent local efficacy	very fast break-down rate								
CC[C@]12CC[C@H]3[C@@H](CCC4=CC(=O)CC[C@@H]43)[C@@H]1[C@@H]1C[C@@H]1[C@@]21CCCO1 [compound A, 18-methyl-15β,16β-methylene-19-nor-20-spirox-4-en-3-one]	dose-dependent local efficacy	very fast break-down rate	low systemic stability/higher plasma clearance	higher bleeding reduction	marked reduction of bleeding	marked reduction of bleeding	4	No bleeding	higher progestional activity	4- to 7 fold
C#C[C@]1(O)CC[C@H]2[C@@H]3CCC4=CC(=O)CC[C@@H]4[C@H]3CC[C@@]21CC [LNG, levonorgestrel, reference compound]							24	4 days		
